Test results: publication PMC13408680, “SLC26A11 is an atypical solute carrier with dual transport-channel function mediating lysosomal sulfate transport” (Nature Communications, 2026)
Substitutions are numbered along the chain they refer to.

T1: SLC26A11^ΔC (SLC26A11(ΔC)) (Homo sapiens, UniProt Q86WA9, E320Q)
T1 construct: C-terminal disordered 23 residues deleted (MD model residues 26-583); expressed in Trichoplusia ni cells by baculovirus; N-glycosylated at Asn-294; homodimer; DDM micelles (DSF), SoyPC/BMP proteoliposomes (transport), MSP1-E3D1 nanodiscs (cryo-EM)
T1 sequence (Q86WA9 1-583 E320Q): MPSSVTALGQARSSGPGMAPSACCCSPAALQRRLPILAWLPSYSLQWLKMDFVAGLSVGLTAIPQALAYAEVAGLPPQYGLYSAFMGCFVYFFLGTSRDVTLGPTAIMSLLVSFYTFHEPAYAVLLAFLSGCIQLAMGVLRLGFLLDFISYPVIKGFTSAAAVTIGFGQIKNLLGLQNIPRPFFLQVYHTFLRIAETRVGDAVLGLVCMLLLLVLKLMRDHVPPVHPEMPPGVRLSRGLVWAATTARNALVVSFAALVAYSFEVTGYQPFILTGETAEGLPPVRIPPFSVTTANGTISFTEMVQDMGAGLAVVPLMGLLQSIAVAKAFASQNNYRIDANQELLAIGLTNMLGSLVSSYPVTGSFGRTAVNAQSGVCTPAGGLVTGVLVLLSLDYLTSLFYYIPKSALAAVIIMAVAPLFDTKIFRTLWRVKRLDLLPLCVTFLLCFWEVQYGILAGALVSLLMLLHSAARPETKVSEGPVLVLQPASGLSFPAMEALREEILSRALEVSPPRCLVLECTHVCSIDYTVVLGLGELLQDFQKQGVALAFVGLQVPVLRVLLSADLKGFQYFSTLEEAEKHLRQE

T2: SLC26A11^ΔC (SLC26A11(ΔC)) (Homo sapiens, UniProt Q86WA9)
T2 construct: C-terminal disordered 23 residues deleted (MD model residues 26-583); expressed in Trichoplusia ni cells by baculovirus; N-glycosylated at Asn-294; homodimer; DDM micelles (DSF), SoyPC/BMP proteoliposomes (transport), MSP1-E3D1 nanodiscs (cryo-EM)
T2 sequence (Q86WA9 1-583): T1 sequence (Q86WA9 1-583 E320Q) with Q320E

B1: SLC26A11^ΔC (SLC26A11(ΔC)) (Homo sapiens) (protein)
chain: T1 sequence (Q86WA9 1-583 E320Q) with Q320E
notes: C-terminal disordered 23 residues deleted (MD model residues 26-583); expressed in Trichoplusia ni cells by baculovirus; N-glycosylated at Asn-294; homodimer; DDM micelles (DSF), SoyPC/BMP proteoliposomes (transport), MSP1-E3D1 nanodiscs (cryo-EM)

Columns and labels:
[1] = biological target: T1, SLC26A11^ΔC (SLC26A11(ΔC)); experiment: differential scanning fluorimetry (nanoDSF), anion titration; assay type: binding
[2] = biological target: T2, SLC26A11^ΔC (SLC26A11(ΔC)); experiment: as above; assay type: binding; conditions: read-out: apparent KD
purified protein = substrate: O=S(=O)(O)O; experiment: purified protein; assay type: biochemical, Homo sapiens; conditions: pH out 5.0, pH in 7.5, 50 mM internal chloride, 30 °C, labelled compound

Molecule | Kd [1] | Kd [2] | Km (purified protein)
Cl [chloride] | 8.8 ± 1.4 mM | 6 ± 1.4 mM | –
O=S(=O)(O)O [sulfate] | 0.019 ± 0.004 mM | 0.057 ± 0.011 mM | –
B1 | – | – | 39.7 ± 5.5 µM
